From patent US12419865B2 (priority 2018, dated 2025)
Where two headings read alike, the source gives them in different places.

Legend:
MACV-p = assay: organism not typed; format: cell-based, Machupo (MACV); conditions: Vero, read-out: MACV-p EC50
[1] = guinea pig, 1 h, pH 7.4
[2] = 1 h, pH 7.4
TCRV-p = assay: organism not typed; format: cell-based; conditions: read-out: TCRV-p EC50
[3] = 1 h, pH 7.4; remark: listed apart in the source
replicative LASV [4] = assay: microbe, parasite or virus in culture; format: cell-based, Lassa Virus; conditions: for EC90: Mammarenavirus lassaense
hERG channel = hERG channel (Homo sapiens, UniProt Q12809); conditions: pH 7.4
Chain of hERG channel (Q12809 whole entry): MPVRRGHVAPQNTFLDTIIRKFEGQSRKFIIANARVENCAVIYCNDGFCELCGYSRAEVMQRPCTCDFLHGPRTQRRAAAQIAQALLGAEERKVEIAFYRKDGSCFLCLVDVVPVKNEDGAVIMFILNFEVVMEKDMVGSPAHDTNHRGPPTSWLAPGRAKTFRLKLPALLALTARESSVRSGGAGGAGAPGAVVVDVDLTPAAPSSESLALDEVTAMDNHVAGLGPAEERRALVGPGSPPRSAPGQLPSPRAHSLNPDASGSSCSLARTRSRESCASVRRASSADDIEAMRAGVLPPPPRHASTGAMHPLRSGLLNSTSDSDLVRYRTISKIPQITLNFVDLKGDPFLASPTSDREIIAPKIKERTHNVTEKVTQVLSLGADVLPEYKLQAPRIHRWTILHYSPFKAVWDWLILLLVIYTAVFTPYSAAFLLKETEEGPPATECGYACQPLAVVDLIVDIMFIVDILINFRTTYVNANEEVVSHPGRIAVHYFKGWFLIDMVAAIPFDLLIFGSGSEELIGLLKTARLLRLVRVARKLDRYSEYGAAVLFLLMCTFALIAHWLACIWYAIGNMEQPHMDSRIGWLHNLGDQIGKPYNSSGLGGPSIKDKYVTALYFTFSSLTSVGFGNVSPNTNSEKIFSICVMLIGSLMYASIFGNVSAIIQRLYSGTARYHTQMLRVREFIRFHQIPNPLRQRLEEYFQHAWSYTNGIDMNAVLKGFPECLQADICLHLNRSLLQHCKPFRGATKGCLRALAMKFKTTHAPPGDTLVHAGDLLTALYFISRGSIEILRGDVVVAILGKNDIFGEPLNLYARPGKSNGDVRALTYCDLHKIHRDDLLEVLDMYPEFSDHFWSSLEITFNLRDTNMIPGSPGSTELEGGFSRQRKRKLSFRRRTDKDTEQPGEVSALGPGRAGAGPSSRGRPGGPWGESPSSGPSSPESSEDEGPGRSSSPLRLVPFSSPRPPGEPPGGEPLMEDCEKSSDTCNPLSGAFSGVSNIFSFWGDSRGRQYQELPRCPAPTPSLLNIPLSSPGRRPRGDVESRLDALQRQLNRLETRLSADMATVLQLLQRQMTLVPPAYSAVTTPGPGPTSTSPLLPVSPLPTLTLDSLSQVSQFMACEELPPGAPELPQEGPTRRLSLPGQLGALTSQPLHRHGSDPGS

replicative LASV [5] = assay: microbe, parasite or virus in culture; format: cell-based, Lassa Virus; conditions: Mammarenavirus lassaense
in vivo = conditions: mouse
LASV-p = assay: microbe, parasite or virus in culture; format: cell-based, Lassa (LASV); conditions: Vesicular stomatitis virus, Vero, read-out: LASV-p EC50
JUNV-p = assay: organism not typed; format: cell-based, Junin (JUNV); conditions: Vero, read-out: JUNV-p EC50
[6] = tested on: native replicating Tacaribe (TCRV) virus; assay: microbe, parasite or virus in culture; format: cell-based; conditions: Mammarenavirus tacaribeense, Vero, 120 h, read-out: TCRV EC50
[7] = 1 h, pH 7.4; remark: listed apart in the source
[8] = mouse, in vivo, po
[9] = mouse, in vivo, 30 mg/kg
VSV-p = assay: microbe, parasite or virus in culture; format: cell-based; conditions: Vesicular stomatitis virus, Vero, read-out: VSV-p EC50
in vitro = conditions: African green monkey
[10] = 1 h, pH 7.4; remark: listed apart in the source
[11] = 1 h, pH 7.4; remark: listed apart in the source

## Cc1cc2ncn(-c3ccc(OC(C)(C)C)cc3)c2cc1-c1ccc(C(C)(C)O)cc1 [Example A1, 2-(4-(1-(4-(tert-butoxy)phenyl)-5-methyl-1H-benzo[d]imidazol-6-yl)phenyl)propan-2-ol]
MACV-p
  EC50: 0.12 nM
[1]
  Percent parent compound remaining at 60 minutes in liver microsomes, Guinea: >95%
[2]
  Percent parent compound remaining at 60 minutes in liver microsomes, Mouse: 82.7%
TCRV-p; Vero
  EC50: 0.29 nM
TCRV-p
  EC50: 0.24 nM
[3]
  Percent parent compound remaining at 60 minutes in liver microsomes, Human: 68.3%
Replicative LASV [4]
  Sl90: >33,000
Replicative LASV [4]; Vero, read-out: VYR Assay EC90
  EC90: < 1 nM
Replicative LASV [4]; read-out: EC90 in the VYR assay format
  EC90: 1 to 3 nM
hERG channel
  % Inhibition at 3 uM: <10%
Replicative LASV [5]; read-out: EC50 in the plaque assay format
  EC50: 1 to 3 nM
Replicative LASV [5]; read-out: Plaque Assay EC50
  EC50: < 3 nM
In vivo
  Vd: 17.6 L/kg
  clearance: 0.8 mL/min/kg
In vivo; po, 30 mg/kg
  AUC(0-t): 183 µg·h/mL
  bioavailability: 35%
  half-life: 17 h
LASV-p
  EC50: 0.83 nM
JUNV-p
  EC50: 0.87 nM
[6]
  EC50: 0.89 nM
[7]
  Percent parent compound remaining at 60 minutes in liver microsomes, Monkey: 8.6%
[8]
  24 hr liver concentration: 240.3 ug/g liver
  24 hr plasma concentration: 8.8 µg/mL
[9]
  Oral C-Max: 20.4 µg/mL
  Oral T-Max: 0.5 h
VSV-p
  EC50: > 10000 nM
In vitro
  CC50: 37700 nM
[10]
  Percent parent compound remaining at 60 minutes in liver microsomes, Dog: >95%
[11]
  Percent parent compound remaining at 60 minutes in liver microsomes, Rat: 93.8%
